The values below come from patent US11548883B2, “Compounds as autotaxin inhibitors and pharmaceutical compositions comprising the same” (LegoChem Biosciences, Inc., priority 2017, dated 2023).

What all share (assay type): biochemical
The test system of test [1] is LPA production in blood serum. Put plainly: Inhibitory activity on LPA production in human blood serum. Particulars: human blood serum (h), 18:1 LPC added.
Test [2] concerns LPA production in blood serum. Put plainly: Inhibitory activity on LPA production in mouse blood serum. Particulars: mouse blood serum (m), 18:1 LPC added.
In a further test the target is human ENPP2 (Homo sapiens (Human), UniProt Q13822). Put plainly: Inhibitory activity on human ENPP2 (FS-3 assay). Particulars: human ENPP2, FS-3 substrate, Table 2. The procedure:
Two-fold dilution of each test compound solution (10 μM, 100% dimethyl sulfoxide) is carried out on 96-well V bottom plate (Costar 3363). After ten-fold dilution of each the test compound solution (100% dimethyl sulfoxide) with deionized distilled water, 10 μL of the diluted each compound solution (10% dimethyl sulfoxide) was aliquoted to a black flat bottom 96-well plate (Costar 3915).

Regarding `O=C(Cn1cc(-c2cnc(NC3Cc4ccccc4C3)nc2)c(OCc2ccccc2)n1)N1CCc2[nH]nnc2C1` [Compound 63, 2-[3-(benzyloxy)-4-{2-[(2,3-dihydro-1H-inden-2-yl)amino]pyrimidin-5-yl}-1H-pyrazol-1-yl]-1-{1H,4H,5H,6H,7H-[1,2,3]triazolo[4,5-c]pyridin-5-yl}ethan-1-one], the figures for the 50% inhibitory concentration (IC50) in test [1] and in test [2] were 10 nM and 12 nM, respectively.

`O=C(Cn1cc(-c2cnc(NC3Cc4ccccc4C3)nc2)c(O)n1)N1CCc2[nH]nnc2C1` [Compound 65, 2-(4-{2-[(2,3-dihydro-1H-inden-2-yl)amino]pyrimidin-5-yl}-3-hydroxy-1H-pyrazol-1-yl)-1-{1H,4H,5H,6H,7H-[1,2,3]triazolo[4,5-c]pyridin-5-yl}ethan-1-one]: the figures for the half-maximal inhibitory concentration (IC50) (at human ENPP2; in test [2]) were below 1.56 nM and 30 nM, respectively.

Regarding `O=C(Cn1cc(-c2cnc(NC3Cc4ccccc4C3)nc2)c(OCCN2CCOCC2)n1)N1CCc2[nH]nnc2C1` [Compound 66, 2-(4-{2-[(2,3-dihydro-1H-inden-2-yl)amino]pyrimidin-5-yl}-3-[2-(morpholin-4-yl)ethoxy]-1H-pyrazol-1-yl)-1-{1H,4H,5H,6H,7H-[1,2,3]triazolo[4,5-c]pyridin-5-yl}ethan-1-one], the IC50 came to 1.9 nM against human ENPP2 and 12 nM in test [2].

Turning to `CCN1CC(Oc2nn(CC(=O)N3CCc4[nH]nnc4C3)cc2-c2cnc(NC3Cc4ccccc4C3)nc2)C1` [Compound 68, 2-(4-{2-[(2,3-dihydro-1H-inden-2-yl)amino]pyrimidin-5-yl}-3-[(1-ethylazetidin-3-yl)oxy]-1H-pyrazol-1-yl)-1-{1H,4H,5H,6H,7H-[1,2,3]triazolo[4,5-c]pyridin-5-yl}ethan-1-one], the IC50 against human ENPP2 came to 1.8 nM; in test [2], 32 nM.

`CCN1CCC(Oc2nn(CC(=O)N3CCc4[nH]nnc4C3)cc2-c2cnc(NC3Cc4ccccc4C3)nc2)CC1` [Compound 70, 2-(4-{2-[(2,3-dihydro-1H-inden-2-yl)amino]pyrimidin-5-yl}-3-[(1-ethylpiperidin-4-yl)oxy]-1H-pyrazol-1-yl)-1-{1H,4H,5H,6H,7H-[1,2,3]triazolo[4,5-c]pyridin-5-yl}ethan-1-one]: the IC50 was 2.3 nM at human ENPP2 and 11 nM in test [2].

As for `O=C(O)c1ccc(COc2nn(CC(=O)N3CCc4[nH]nnc4C3)cc2-c2cnc(NC3Cc4ccccc4C3)nc2)cc1` [Compound 72, 4-{[(4-{2-[(2,3-dihydro-1H-inden-2-yl)amino]pyrimidin-5-yl}-1-(2-oxo-2-{1H,4H,5H,6H,7H-[1,2,3]triazolo[4,5-c]pyridin-5-yl}ethyl)-1H-pyrazol-3-yl)oxy]methyl}benzoic Acid], the IC50 on human ENPP2 stood at 3.4 nM; in test [2], 42 nM.

In the case of `O=C(O)COc1nn(CC(=O)N2CCc3[nH]nnc3C2)cc1-c1cnc(NC2Cc3ccccc3C2)nc1` [Compound 73, 2-[(4-{2-[(2,3-dihydro-1H-inden-2-yl)amino]pyrimidin-5-yl}-1-(2-oxo-2-{1H,4H,5H,6H,7H-[1,2,3]triazolo[4,5-c]pyridin-5-yl}ethyl)-1H-pyrazol-3-yl)oxy]acetic Acid], the values for the IC50 (against human ENPP2; in test [2]) were 3.7 nM and 69 nM, respectively.

Regarding `CN(C)c1nn(CC(=O)N2CCc3[nH]nnc3C2)cc1-c1cnc(NC2Cc3ccccc3C2)nc1` [Compound 74, 2-(4-{2-[(2,3-dihydro-1H-inden-2-yl)amino]pyrimidin-5-yl}-3-(dimethylamino)-1H-pyrazol-1-yl)-1-{1H,4H,5H,6H,7H-[1,2,3]triazolo[4,5-c]pyridin-5-yl}ethan-1-one], the half-inhibitory concentration (IC50) against human ENPP2 was found to be 1.7 nM; in test [2] it was 15 nM.

With `CCc1nn(CC(=O)N2CCc3[nH]nnc3C2)cc1-c1cnc(NC2Cc3ccccc3C2)nc1` [Compound 79, 2-(4-{2-[(2,3-dihydro-1H-inden-2-yl)amino]pyrimidin-5-yl}-3-ethyl-1H-pyrazol-1-yl)-1-{1H,4H,5H,6H,7H-[1,2,3]triazolo[4,5-c]pyridin-5-yl}ethan-1-one], the 50% inhibitory concentration (IC50) in test [1] was determined as 5 nM; on human ENPP2 it was 1.6 nM.

`O=C(Cn1cc(-c2cnc(NC3Cc4ccccc4C3)nc2)c(CN2CCOCC2)n1)N1CCc2[nH]nnc2C1` [Compound 80, 2-(4-{2-[(2,3-dihydro-1H-inden-2-yl)amino]pyrimidin-5-yl}-3-(morpholin-4-ylmethyl)-1H-pyrazol-1-yl)-1-{1H,4H,5H,6H,7H-[1,2,3]triazolo[4,5-c]pyridin-5-yl}ethan-1-one]: the results for the IC50 (against human ENPP2; in test [2]) were below 1.56 nM and 6 nM, respectively.

As to `O=C(Cn1cc(-c2cnc(NC3Cc4ccccc4C3)nc2)c(CN2CCCCC2)n1)N1CCc2[nH]nnc2C1` [Compound 81, 2-(4-{2-[(2,3-dihydro-1H-inden-2-yl)amino]pyrimidin-5-yl}-3-(piperidin-1-ylmethyl)-1H-pyrazol-1-yl)-1-{1H,4H,5H,6H,7H-[1,2,3]triazolo[4,5-c]pyridin-5-yl}ethan-1-one], the figures for the IC50 (on human ENPP2; in test [2]) were below 1.56 nM and 5 nM, respectively.

`O=C1CN(Cc2nn(CC(=O)N3CCc4[nH]nnc4C3)cc2-c2cnc(NC3Cc4ccccc4C3)nc2)CCN1` [Compound 82, 4-[(4-{2-[(2,3-dihydro-1H-inden-2-yl)amino]pyrimidin-5-yl}-1-(2-oxo-2-{1H,4H,5H,6H,7H-[1,2,3]triazolo[4,5-c]pyridin-5-yl}ethyl)-1H-pyrazol-3-yl)methyl]piperazin-2-one]: the results for the 50% inhibitory concentration (IC50) (on human ENPP2; in test [2]) were below 1.56 nM and 8 nM, respectively.

For `O=C(Cn1cc(-c2cnc(NC3Cc4ccccc4C3)nc2)c(CN2CCc3ccccc3C2)n1)N1CCc2[nH]nnc2C1` [Compound 84, 2-(4-{2-[(2,3-dihydro-1H-inden-2-yl)amino]pyrimidin-5-yl}-3-(1,2,3,4-tetrahydroisoquinolin-2-ylmethyl)-1H-pyrazol-1-yl)-1-{1H,4H,5H,6H,7H-[1,2,3]triazolo[4,5-c]pyridin-5-yl}ethan-1-one], the IC50 on human ENPP2 is 2.8 nM; in test [2] it was 8 nM.

The IC50 is the concentration that gives 50% inhibition. Read a low IC50 as greater potency.
